These results are taken from patent US11059824B2, “Substituted purines as TLR7 agonists” (Primmune Therapeutics, Inc., priority 2018, dated 2021).

The conditions of data set [1]: cynomolgus monkeys, from Table 23 of U.S. Pat. No. 7,575,068 B2, cited from earlier work; for % F (percent bioavailability of loxoribine administered as prodrug): oral prodrug of loxoribine.
The nature of data set [2]: Oral bioavailability in cynomolgus monkeys. Type of data set: in vivo. Particulars: vs loxoribine administered orally as itself or as prodrugs. Here is the method:
From two to four male or female cynomolgus monkeys were used for animal testing studies. The study compounds were formulated in a vehicle (e.g. 50 mM Phosphate Buffered Saline, pH 7.4) appropriate for animal oral or intravenous administration. Parent compounds 1, 5, 26 and 27 were administered at 1 mg/kg by IV administration whereas prodrugs of the corresponding compounds were administered at 2 mg/kg. After dosing, 0.5 mL blood samples were collected typically at 0.083, 0.33, 1, 2, 4, 6, 8, 12 and 24 hours post-dosing (iv administration) or 0.25, 0.5, 1, 2, 4, 6, 8, 12 and 24 hours post-dosing (oral administration). Plasma was separated from blood and analyzed for the active agonists by well-known LC-MS techniques. […] Percent bioavailability (F %) of compounds when administered orally as prodrug was calculated from the ratio of dose-normalized AUC of parent from oral prodrug administration to that of dose-normalized parent AUC from IV parent administration and reported in Table 4.

A further data set has as its target human TLR7 (Homo sapiens (Human), UniProt Q9NYK1). In words: TLR7 reporter assay (HEK293-TLR-NF-κB inducible SEAP reporter). Format: cell-based. Particulars: HEK293 cells stably expressing human TLR7 with NF-κB-driven SEAP reporter; 15-24 hours. From the text:
(§1) The engagement of TLRs by cognate ligands triggers downstream signaling cascades, leading to the activation of NF-κB and other transcription factors which initiate various immunomodulatory effects. The human embryonic kidney cell line, HEK293, is essentially non-responsive to TLR agonists, but ectopic expression of TLRs in these cells allows cognate agonists to activate endogenous NF-κB. Accordingly, the HEK293-TLR-NF-κB inducible reporter system is used to assay TLR agonists. HEK293 cell lines stably expressing human TLR7 or TLR8 together with an NF-κB-driven-secreted alkaline phosphatase (SEAP) reporter were invented at InvivoGen (San Diego, Calif., USA) and used to assess compounds of the present invention for TLR7 and TLR8 agonist activities. Cells were seeded at 2-5×10^4 cells/well in 96 well plates ([…]) and treated with various concentrations of compound (10 μl) for 15-24 hours. SEAP activity was determined by measuring OD at 650 nm; the media used to culture the cell lines contains the reagents required for SEAP detection. The EC50 values in Table 2 are calculated from fitting the dose response of measured SEAP activity for each compound to the following equation: Y=ymax*c^nh/(EC50^nh+c^nh)+blank where Y is the experimentally measured OD650 at concentration c of test article, blank is the observed OD650 in the absence of TLR7 agonist, ymax is the difference between the measured OD650 in the presence of either 28.5 μM resiquimod or 1.675 μM CL307 and the blank and values of EC50 and nh are determined by nonlinear least squares analysis.

The test system of data set [3] is interferon-α production in hPBMCs. The data set can be described thus: Induction of interferon-α production in hPBMCs. Particulars: interferon-α production from hPBMCs; for Weighted MEC: geometric mean of all individual MECs across all donors, 24 hours; for individual MEC values: per donor. Format: cell-based, human. As for the experimental part: Treatment of hPBMCs with a TLR7 agonist typically induces substantial production of interferon-α as well as lesser amounts of a variety of other cytokines and chemokines. A typical experiment uses hPBMCs isolated from a healthy donor and placed in replicate cell culture wells; typically 1.0-7.5×10^6 cells are placed in each well. Test compound is added and the cells cultured for 24 hours at 37° C. in a humidified atmosphere containing 5% CO2 post-addition; untreated controls are included. Secreted interferon-α production is measured using an a multisubtype interferon-α ELISA kit like those from PBL Assay Sciences or specifically as IFNα2a as part of a panel of cytokines and chemokines using luminex methodologies. The minimal effective concentration (MEC) is the minimum concentration in a dose response curve where a significant increase in interferon-α production (generally at least 20 pg/ml) is observed above baseline. MEC values for each compound are determined for at least three donors. The weighted MEC for each compound is the geometric mean of all individual MECs across all donors. Concentrations tested typically consist of a two-fold dilution series starting at 100 μM. In the calculation of weighted MEC, any value >100 μM is arbitrarily set to 200 μM unless all MECs for a compound exceed 100 μM

The next data set addresses human TLR8 (Homo sapiens (Human), UniProt Q9NR97). The data set can be described thus: TLR8 reporter cell assay (HEK293-TLR-NF-κB inducible SEAP reporter). Type of data set: cell-based. Particulars: incubation with resiquimod.
Excerpt: as §1, with “The EC50 values in Table 2 are calculated from fitting the dose response of measured SEAP activity for each compound to the following equation: Y=ymax*c^nh/(EC50^nh+c^nh)+blank where Y is the experimentally measured OD650 at concentration c of test article, blank is the observed OD650 in the absence of TLR7 agonist, ymax is the difference between the measured OD650 in the presence of either 28.5 μM resiquimod or 1.675 μM CL307 and the blank and values of EC50 and nh are determined by nonlinear least squares analysis.” left out

For data set [4], the system named is B16-F10 rodent melanoma tumor cells. In words: Antitumor activity in rodent model (B16-F10 syngenic). Type of data set: in vivo, mice. Particulars: IV by tail vein, 10 total doses, two weeks after randomization. As for the experimental part:
B16-F10 rodent melanoma tumor cells were injected into the flank of 32 mice in a syngenic model. […] Administration of the drugs was initiated on the following day. Tumor volumes were monitored for two weeks.

Several values for one entry are separate records, joined by “and”; a condition that tells them apart may be missing. Equal values may be shown once. Marks after values point to notes of the source that are not given here.

Sequence of human TLR7 (Q9NYK1 27-1049): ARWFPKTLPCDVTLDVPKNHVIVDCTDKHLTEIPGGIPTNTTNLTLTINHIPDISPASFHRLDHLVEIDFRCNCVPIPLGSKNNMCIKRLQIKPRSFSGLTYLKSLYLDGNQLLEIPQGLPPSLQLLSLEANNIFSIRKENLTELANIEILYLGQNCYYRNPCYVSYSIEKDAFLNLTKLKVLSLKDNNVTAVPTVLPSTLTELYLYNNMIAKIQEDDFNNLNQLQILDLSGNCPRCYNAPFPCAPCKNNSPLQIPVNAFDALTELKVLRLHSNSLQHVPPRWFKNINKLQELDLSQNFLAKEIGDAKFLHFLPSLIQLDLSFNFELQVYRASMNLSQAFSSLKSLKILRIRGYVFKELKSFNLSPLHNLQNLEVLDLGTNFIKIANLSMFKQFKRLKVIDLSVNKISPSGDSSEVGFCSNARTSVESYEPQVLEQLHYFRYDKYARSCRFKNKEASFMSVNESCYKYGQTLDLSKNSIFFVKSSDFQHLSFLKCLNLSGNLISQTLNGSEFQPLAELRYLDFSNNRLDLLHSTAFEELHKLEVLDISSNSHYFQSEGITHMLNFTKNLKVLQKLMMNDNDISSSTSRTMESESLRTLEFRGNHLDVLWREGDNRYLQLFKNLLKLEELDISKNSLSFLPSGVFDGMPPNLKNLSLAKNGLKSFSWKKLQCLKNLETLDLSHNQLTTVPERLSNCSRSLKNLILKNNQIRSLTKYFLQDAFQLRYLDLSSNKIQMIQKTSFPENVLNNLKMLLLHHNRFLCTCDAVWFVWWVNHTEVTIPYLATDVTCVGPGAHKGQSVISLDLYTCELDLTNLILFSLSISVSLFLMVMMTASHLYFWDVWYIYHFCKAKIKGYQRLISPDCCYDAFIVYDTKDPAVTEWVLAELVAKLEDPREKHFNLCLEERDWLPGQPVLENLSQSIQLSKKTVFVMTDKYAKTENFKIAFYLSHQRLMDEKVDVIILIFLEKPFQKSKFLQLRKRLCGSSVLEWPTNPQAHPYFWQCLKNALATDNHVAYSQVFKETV
Sequence of human TLR8 (Q9NR97 27-1041): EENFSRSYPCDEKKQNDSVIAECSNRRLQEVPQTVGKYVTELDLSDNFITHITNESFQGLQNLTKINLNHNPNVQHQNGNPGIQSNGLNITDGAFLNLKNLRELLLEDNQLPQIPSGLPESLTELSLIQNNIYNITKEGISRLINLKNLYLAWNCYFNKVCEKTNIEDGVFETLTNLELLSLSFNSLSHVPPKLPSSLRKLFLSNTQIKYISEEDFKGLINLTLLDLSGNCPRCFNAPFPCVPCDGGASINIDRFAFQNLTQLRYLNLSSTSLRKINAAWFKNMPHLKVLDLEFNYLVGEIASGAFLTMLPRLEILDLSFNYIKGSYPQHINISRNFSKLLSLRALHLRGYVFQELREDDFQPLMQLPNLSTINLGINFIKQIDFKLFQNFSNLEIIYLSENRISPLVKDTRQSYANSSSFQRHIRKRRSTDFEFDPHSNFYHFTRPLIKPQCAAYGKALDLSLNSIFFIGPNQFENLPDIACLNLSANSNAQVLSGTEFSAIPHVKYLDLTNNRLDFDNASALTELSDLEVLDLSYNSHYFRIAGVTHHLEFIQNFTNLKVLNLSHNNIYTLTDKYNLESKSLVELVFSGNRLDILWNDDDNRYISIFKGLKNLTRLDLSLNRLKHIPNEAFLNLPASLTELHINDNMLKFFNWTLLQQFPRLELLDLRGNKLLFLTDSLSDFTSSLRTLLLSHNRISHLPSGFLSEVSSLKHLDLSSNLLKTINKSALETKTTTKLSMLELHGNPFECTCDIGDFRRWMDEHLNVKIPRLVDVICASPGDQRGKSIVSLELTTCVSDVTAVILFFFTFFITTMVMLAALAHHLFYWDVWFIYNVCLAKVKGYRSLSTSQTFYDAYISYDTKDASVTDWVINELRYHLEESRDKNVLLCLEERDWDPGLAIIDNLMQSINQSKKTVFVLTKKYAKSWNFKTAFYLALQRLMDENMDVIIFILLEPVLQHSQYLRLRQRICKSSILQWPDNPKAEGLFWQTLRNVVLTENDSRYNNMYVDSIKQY

`C=CCn1c(=O)n([C@@H]2O[C@H](CO)[C@@H](O)[C@H]2O)c2nc(N)nc(OCC)c21` [7-allyl-2-amino-6-ethoxy-9-β-D-ribofuranosyl-7,9-dihydropurin-8-one]: the “% F (percent bioavailability of loxoribine administered as prodrug)” value in data set [1] is 9%.
As to `C=CCn1c(=O)n([C@@H]2O[C@H](CO)[C@@H](O)[C@H]2O)c2nc(N)ncc21` [7-allyl-2-amino-9-β-D-ribofuranosyl-7,9-dihydropurin-8-one], the “% F (percent bioavailability of loxoribine administered as prodrug)” value in data set [1] is 13%.
In the case of `Nc1nc2c(c(=O)[nH]1)n(CC1CC1)c(=O)n2[C@@H]1O[C@H](CO)[C@H](O)[C@H]1O` [Compound 1, 2-Amino-7-(cyclopropylmethyl)-9-((2R,3R,4R,5R)-3,4-dihydroxy-5-(hydroxymethyl)tetrahydrofuran-2-yl)-7,9-dihydro-1H-purine-6,8-dione], the “Systemic delivery by prodrugs compared with loxoribine” value in data set [2] is “substantially greater than loxoribine”. For the same molecule, the EC50 (as a rule, the concentration at which the effect is half-maximal) on human TLR7 came out at 188 µM. The “Weighted MEC” value in data set [3] is 66* μM.
In the case of `C#CCn1c(=O)n([C@@H]2O[C@H](CO)C[C@H]2O)c2nc(N)[nH]c(=O)c21` [Compound 26, 2-Amino-9-((2R,3R,5S)-3-hydroxy-5-(hydroxymethyl)tetrahydrofuran-2-yl)-7-(prop-2-yn-1-yl)-7,9-dihydro-1H-purine-6,8-dione], the “Systemic delivery by prodrugs compared with loxoribine” value in data set [2] is “substantially greater than loxoribine”. At human TLR7, this molecule had an EC50 of 519 µM. In data set [3], the “Weighted MEC” value was “less than or equal to 40 μM and 31 μM”; the “individual MEC values” was less than 100 µM.
Consider `C#CCn1c(=O)n([C@@H]2O[C@H](CO)[C@@H](F)[C@H]2O)c2nc(N)[nH]c(=O)c21` [Compound 27, 2-Amino-9-((2R,3S,4S,5R)-4-fluoro-3-hydroxy-5-(hydroxymethyl)tetrahydrofuran-2-yl)-7-(prop-2-yn-1-yl)-7,9-dihydro-1H-purine-6,8-dione], for which, in data set [2], the “Systemic delivery by prodrugs compared with loxoribine” value is “substantially greater than loxoribine”. This molecule also had an EC50 on human TLR7 of 376 µM. Also, in data set [3], the “Weighted MEC” value was “less than or equal to 40 μM and 23 μM”; the “individual MEC values” was less than 100 µM.
As to `CCCn1c(=O)n([C@@H]2O[C@H](CO)[C@H](O)[C@H]2O)c2nc(N)[nH]c(=O)c21` [Compound 17, 2-Amino-9-((2R,3R,4R,5R)-3,4-dihydroxy-5-(hydroxymethyl)tetrahydrofuran-2-yl)-7-propyl-7,9-dihydro-1H-purine-6,8-dione], the EC50 on human TLR7 stood at 337 µM. Moreover, the “Weighted MEC” value in data set [3] is listed as 100* μM.
As for `CCOCc1nc2c(N)nc3ccccc3c2n1CC(C)(C)O` [resiquimod], the “induction of SEAP production in the TLR8 reporter cell assay” value on human TLR8 is “Substantial induction of SEAP production”.
As for `C#CCn1c(=O)n([C@@H]2O[C@H](CO)[C@H](O)[C@H]2O)c2nc(N)[nH]c(=O)c21` [Compound 5, 2-Amino-9-((2R,3R,4R,5R)-3,4-dihydroxy-5-(hydroxymethyl)tetrahydrofuran-2-yl)-7-(prop-2-yn-1-yl)-7,9-dihydro-1H-purine-6,8-dione], the “Mean tumor growth inhibition (% TGI) versus the control group” value in data set [4] (group (ii): 40 mg/kg, BID for five consecutive days) is on record as 40%. In data set [4] (group (iii): 40 mg/kg, BID every other day), the “Mean tumor growth inhibition (% TGI) versus the control group” value is 64%. At human TLR7, this molecule gave an EC50 of 292 µM. In data set [3], the “Weighted MEC” value is “less than or equal to 40 μM and 34 μM”; the “individual MEC values” is less than 100 µM.
Turning to `C/C=C/Cn1c(=O)n([C@@H]2O[C@H](CO)[C@H](O)[C@H]2O)c2nc(N)[nH]c(=O)c21` [Compound 7, 2-Amino-7-((E)-but-2-en-1-yl)-9-((2R,3R,4R,5R)-3,4-dihydroxy-5-(hydroxymethyl)tetrahydrofuran-2-yl)-7,9-dihydro-1H-purine-6,8-dione], the EC50 at human TLR7 is 535 µM. For the same molecule, the “Weighted MEC” value in data set [3] worked out at 63 µM.
Molecule `C#CCn1c(=O)n([C@@H]2O[C@H](CO)[C@H](F)[C@H]2O)c2nc(N)[nH]c(=O)c21` [Compound 28, 2-Amino-9-((2R,3S,4R,5R)-4-fluoro-3-hydroxy-5-(hydroxymethyl)tetrahydrofuran-2-yl)-7-(prop-2-yn-1-yl)-7,9-dihydro-1H-purine-6,8-dione] came in with an EC50 at human TLR7 of 470 µM. In addition, in data set [3], the “Weighted MEC” value is “less than or equal to 40 μM and 33 μM”; the “individual MEC values” is less than 100 µM.
For the molecule `Nc1nc2c(c(=O)[nH]1)n(CC(F)(F)F)c(=O)n2[C@@H]1O[C@H](CO)[C@H](O)[C@H]1O` [Compound 13, 2-Amino-9-((2R,3R,4R,5R)-3,4-dihydroxy-5-(hydroxymethyl)tetrahydrofuran-2-yl)-7-(2,2,2-trifluoroethyl)-7,9-dihydro-1H-purine-6,8-dione], a half-maximal effect on human TLR7 (EC50) was put at 151 µM. For the same molecule, in data set [3], the “Weighted MEC” value was 66* μM.
For `C=CCn1c(=O)n([C@@H]2O[C@H](CO)[C@@H](O)[C@H]2O)c2nc(N)[nH]c(=O)c21` [loxoribine, reference compound], the “% F (intrinsic bioavailability of loxoribine)” value in data set [1] (loxoribine administered orally as loxoribine itself) is on record as 2%^b. Also, at human TLR7, the EC50 was 322 µM. Moreover, the “Weighted MEC” value in data set [3] was 136* μM.
As to `Nc1nc2c(c(=O)[nH]1)n(CCCCO)c(=O)n2[C@@H]1O[C@H](CO)[C@H](O)[C@H]1O` [Compound 19, 2-Amino-9-((2R,3R,4R,5R)-3,4-dihydroxy-5-(hydroxymethyl)tetrahydrofuran-2-yl)-7-(4-hydroxybutyl)-7,9-dihydro-1H-purine-6,8-dione], the EC50 on human TLR7 stood at 491 µM. For the same molecule, the “Weighted MEC” value in data set [3] is >100* μM.
